Source: patent US20240246942A1, “KINASE INHIBITORS FOR THE TREATMENT OF NEURODEGENERATIVE DISEASES” (priority 2020, published 2024)
Read-outs that look alike come from different tables or passages of the source.

How the values were obtained:
[1] = system: SHSY5Y cells; experiment: MTT cytotoxicity assay; type: cell-based; parameters: dose or concentration left out as unconfirmed; conditions: 48 hrs, average of ≥2 experiments;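 note: compounds tested at 10 µM final concentration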
Protocol: A day before the assay, cells were plated at 50,000/well in 96 well plates in the culture medium. […] After the incubation, cells were subjected to MTT assay using Vybrant MTT Cell Proliferation kit as directed by the vendor (Life Technologies).

[2] = Microsomal stability, human; type: in vitro ADME; conditions: human microsomes
[3] = target: T1, panel of 374 wild-type kinases (Homo sapiens, UniProt Q8IY84); experiment: biochemical; conditions: read-out: % Enzyme Activity (relative to DMSO controls), NIM1; 5 uM
T1 construct: purchased Reaction Biology Corporation
T1 sequence (Q8IY84 whole entry): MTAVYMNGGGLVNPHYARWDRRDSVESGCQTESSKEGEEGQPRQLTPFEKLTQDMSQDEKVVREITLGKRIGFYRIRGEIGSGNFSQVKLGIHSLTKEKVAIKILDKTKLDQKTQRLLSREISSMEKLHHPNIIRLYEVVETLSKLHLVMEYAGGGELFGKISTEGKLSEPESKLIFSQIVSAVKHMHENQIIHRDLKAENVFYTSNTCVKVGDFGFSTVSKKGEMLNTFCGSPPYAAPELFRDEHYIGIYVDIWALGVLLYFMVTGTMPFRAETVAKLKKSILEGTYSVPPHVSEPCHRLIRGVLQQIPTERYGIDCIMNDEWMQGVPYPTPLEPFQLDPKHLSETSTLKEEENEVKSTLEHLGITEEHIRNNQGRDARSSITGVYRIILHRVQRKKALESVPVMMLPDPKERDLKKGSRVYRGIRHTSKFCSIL

[4] = target: T2, panel of 374 wild-type kinases (Homo sapiens, UniProt Q02156); experiment: biochemical; conditions: read-out: % Enzyme Activity (relative to DMSO controls), kinase PKCepsilon; 5 uM
T2 construct: purchased Reaction Biology Corporation

[5] = target: T3, panel of 374 wild-type kinases (Homo sapiens, UniProt Q12852); experiment: biochemical; conditions: read-out: % Enzyme Activity (relative to DMSO controls), DLK/MAP3K12; 5 uM
T3 construct: purchased Reaction Biology Corporation
T3 sequence (Q12852 whole entry): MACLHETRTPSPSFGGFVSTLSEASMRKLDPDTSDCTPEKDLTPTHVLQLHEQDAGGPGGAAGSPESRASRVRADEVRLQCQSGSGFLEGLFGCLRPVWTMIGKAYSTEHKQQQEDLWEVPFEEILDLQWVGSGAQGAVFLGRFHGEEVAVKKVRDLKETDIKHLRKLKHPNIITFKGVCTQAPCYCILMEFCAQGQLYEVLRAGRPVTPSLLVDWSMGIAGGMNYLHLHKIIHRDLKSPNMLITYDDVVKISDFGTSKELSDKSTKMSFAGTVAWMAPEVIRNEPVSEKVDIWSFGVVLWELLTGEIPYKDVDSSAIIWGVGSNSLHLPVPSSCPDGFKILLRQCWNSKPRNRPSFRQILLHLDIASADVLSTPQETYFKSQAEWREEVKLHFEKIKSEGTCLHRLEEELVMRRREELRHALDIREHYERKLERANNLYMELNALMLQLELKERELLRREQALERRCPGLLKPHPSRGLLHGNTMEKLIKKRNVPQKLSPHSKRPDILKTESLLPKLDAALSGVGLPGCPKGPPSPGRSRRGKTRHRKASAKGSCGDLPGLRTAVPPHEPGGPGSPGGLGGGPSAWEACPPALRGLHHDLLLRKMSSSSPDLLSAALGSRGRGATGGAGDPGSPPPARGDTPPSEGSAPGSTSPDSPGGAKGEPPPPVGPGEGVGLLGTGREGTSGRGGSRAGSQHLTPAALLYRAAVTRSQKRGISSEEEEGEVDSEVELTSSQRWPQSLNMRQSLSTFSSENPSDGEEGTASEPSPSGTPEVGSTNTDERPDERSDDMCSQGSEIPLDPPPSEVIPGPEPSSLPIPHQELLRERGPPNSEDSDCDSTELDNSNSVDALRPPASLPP

[6] = target: T4, panel of 374 wild-type kinases (Homo sapiens, UniProt O15111); experiment: biochemical; conditions: read-out: % Enzyme Activity (relative to DMSO controls), IKKa/CHUK
T4 construct: purchased Reaction Biology Corporation
T4 sequence (O15111 whole entry): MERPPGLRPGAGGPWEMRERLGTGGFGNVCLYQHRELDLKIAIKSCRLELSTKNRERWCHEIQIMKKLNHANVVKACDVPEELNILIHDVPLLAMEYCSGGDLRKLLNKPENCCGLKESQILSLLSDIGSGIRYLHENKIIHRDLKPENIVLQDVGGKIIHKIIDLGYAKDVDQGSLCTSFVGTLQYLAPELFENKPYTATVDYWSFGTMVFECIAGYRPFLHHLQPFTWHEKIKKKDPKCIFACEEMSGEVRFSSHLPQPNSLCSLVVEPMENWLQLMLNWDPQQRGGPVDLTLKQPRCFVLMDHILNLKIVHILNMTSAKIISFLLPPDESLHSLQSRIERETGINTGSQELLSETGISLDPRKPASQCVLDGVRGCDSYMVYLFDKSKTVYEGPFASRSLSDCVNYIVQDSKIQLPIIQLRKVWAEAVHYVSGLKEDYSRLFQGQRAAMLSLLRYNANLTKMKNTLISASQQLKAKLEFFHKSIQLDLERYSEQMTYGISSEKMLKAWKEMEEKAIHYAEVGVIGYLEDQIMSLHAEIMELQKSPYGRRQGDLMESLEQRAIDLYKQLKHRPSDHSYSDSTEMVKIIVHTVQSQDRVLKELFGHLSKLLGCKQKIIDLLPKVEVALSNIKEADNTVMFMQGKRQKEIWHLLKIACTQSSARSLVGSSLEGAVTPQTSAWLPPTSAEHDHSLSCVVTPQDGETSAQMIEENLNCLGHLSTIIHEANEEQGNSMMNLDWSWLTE

[7] = target: T5, panel of 374 wild-type kinases (Homo sapiens, UniProt P30291); experiment: biochemical; conditions: read-out: % Enzyme Activity (relative to DMSO controls), kinase WEE1; 5 uM
T5 construct: purchased Reaction Biology Corporation
T5 sequence (P30291 whole entry): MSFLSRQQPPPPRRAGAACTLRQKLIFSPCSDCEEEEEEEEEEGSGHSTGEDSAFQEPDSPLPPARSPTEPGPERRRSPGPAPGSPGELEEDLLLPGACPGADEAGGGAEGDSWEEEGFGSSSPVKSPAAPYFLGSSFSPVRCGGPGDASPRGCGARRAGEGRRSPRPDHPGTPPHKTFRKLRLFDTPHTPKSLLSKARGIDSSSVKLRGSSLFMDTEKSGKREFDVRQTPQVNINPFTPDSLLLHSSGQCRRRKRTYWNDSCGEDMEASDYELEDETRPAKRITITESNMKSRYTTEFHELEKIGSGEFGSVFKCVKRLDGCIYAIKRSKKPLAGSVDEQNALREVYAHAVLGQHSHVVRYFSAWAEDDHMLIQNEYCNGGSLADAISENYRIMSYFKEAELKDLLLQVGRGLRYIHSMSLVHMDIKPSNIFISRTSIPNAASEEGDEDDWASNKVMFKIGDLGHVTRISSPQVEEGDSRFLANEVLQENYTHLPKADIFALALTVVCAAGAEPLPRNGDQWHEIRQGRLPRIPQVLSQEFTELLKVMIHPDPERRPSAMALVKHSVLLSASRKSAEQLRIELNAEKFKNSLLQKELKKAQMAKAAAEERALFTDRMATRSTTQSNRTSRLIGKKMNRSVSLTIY

[8] = target: T6, panel of 374 wild-type kinases (Homo sapiens, UniProt O43293); experiment: biochemical; conditions: read-out: % Enzyme Activity (relative to DMSO controls), kinase ZIPK/DAPK3
T6 construct: purchased Reaction Biology Corporation

[9] = target: T7, panel of 374 wild-type kinases (Homo sapiens, UniProt O60307); experiment: biochemical; conditions: read-out: % Enzyme Activity (relative to DMSO controls), MAST3
T7 construct: purchased Reaction Biology Corporation

[10] = target: T8, panel of 374 wild-type kinases (Homo sapiens, UniProt Q99640); experiment: biochemical; conditions: read-out: % Enzyme Activity (relative to DMSO controls), kinase PKMYT1; 5 uM
T8 construct: purchased Reaction Biology Corporation

[11] = target: T9, panel of 374 wild-type kinases (Homo sapiens, UniProt Q9Y572); experiment: biochemical; conditions: read-out: % Enzyme Activity (relative to DMSO controls), kinase RIPK3; 5 uM
T9 construct: purchased Reaction Biology Corporation

[12] = target: T10, panel of 374 wild-type kinases (Homo sapiens, UniProt P68400); experiment: biochemical; conditions: CK2a, read-out: % Enzyme Activity (relative to DMSO controls)
T10 construct: purchased Reaction Biology Corporation
T10 sequence (P68400 whole entry): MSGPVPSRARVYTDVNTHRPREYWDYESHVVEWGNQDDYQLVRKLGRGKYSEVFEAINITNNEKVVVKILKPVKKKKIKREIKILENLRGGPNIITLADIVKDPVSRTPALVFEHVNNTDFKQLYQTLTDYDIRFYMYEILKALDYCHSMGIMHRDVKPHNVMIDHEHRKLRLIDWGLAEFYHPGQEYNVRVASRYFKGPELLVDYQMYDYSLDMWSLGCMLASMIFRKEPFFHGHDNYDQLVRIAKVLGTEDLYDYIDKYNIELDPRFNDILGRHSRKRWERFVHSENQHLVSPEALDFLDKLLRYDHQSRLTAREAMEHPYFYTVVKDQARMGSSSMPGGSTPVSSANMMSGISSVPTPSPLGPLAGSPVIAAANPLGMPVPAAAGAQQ

[13] = target: T11, panel of 374 wild-type kinases (Homo sapiens, UniProt Q00534); experiment: biochemical; conditions: 5 uM
T11 construct: purchased Reaction Biology Corporation
T11 sequence (Q00534 whole entry): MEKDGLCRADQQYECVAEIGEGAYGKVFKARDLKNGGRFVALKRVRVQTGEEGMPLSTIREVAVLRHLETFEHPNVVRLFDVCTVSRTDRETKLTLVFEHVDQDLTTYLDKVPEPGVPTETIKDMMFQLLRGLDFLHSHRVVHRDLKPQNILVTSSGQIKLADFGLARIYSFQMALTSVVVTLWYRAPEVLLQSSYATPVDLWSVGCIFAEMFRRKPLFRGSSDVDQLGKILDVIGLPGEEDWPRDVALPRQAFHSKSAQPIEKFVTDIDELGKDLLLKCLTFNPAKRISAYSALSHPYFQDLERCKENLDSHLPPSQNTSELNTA

[14] = target: CYP2D6 (Homo sapiens, UniProt P10635); experiment: P450 cocktail inhibition assay, CYP2D6; type: in vitro ADME; conditions: at 10 μM
CYP2D6, sequence (P10635 whole entry, canonical isoform): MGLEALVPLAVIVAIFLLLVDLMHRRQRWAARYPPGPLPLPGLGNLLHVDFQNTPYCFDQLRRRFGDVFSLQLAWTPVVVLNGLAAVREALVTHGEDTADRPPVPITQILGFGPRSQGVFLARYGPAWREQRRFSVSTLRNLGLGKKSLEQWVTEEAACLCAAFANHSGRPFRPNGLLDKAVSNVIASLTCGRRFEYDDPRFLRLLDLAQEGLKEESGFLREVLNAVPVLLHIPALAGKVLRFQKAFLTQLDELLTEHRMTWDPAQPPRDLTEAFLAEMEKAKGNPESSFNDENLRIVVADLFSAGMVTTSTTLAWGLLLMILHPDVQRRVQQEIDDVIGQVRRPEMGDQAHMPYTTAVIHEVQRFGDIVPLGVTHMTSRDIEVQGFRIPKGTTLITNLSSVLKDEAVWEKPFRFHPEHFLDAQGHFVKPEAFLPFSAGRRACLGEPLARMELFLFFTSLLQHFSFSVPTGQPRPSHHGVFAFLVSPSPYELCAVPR
Protocol: (§1) P450s inhibition for four major isoforms are evaluated using a cocktail inhibition assay where the metabolism of specific marker substrate (CYP1A2 phenaceten […] to acetaminophen); CYP2C9, tolbutamide hydroxylation to hydrocytolbutamide; CYP2D6, bufuralol hydroxylation to […]; and CYP3A4, midazolam hydroxylation to 1′-Hydroxymidazolam) in the presence or absence of 10 TM probe compound is evaluated. The concentration of each marker substrate is approximately its Km. […] Specific inhibitors for each isoform are included in each run to validate the system.

[15] = target: T12, CYP1A2 (Homo sapiens, UniProt P05177); experiment: P450 cocktail inhibition assay, CYP1A2; type: in vitro ADME; conditions: at 10 μM
T12 sequence (P05177 1-516): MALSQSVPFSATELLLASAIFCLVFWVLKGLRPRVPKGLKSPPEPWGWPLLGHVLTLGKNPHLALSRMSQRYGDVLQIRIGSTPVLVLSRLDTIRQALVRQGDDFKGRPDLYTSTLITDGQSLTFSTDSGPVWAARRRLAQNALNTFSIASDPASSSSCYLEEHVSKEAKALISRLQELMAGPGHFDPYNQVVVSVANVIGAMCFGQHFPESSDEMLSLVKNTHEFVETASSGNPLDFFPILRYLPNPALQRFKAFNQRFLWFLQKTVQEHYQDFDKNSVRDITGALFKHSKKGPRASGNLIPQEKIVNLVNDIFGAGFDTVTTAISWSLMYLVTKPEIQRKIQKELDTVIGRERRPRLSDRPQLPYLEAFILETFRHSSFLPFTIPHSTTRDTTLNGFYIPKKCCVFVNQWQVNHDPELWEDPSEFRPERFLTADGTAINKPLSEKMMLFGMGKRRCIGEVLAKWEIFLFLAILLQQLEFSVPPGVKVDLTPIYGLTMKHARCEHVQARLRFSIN
Protocol: as §1

[16] = target: CYP2C9 (Homo sapiens, UniProt P11712); experiment: P450 cocktail inhibition assay, CYP2C9; type: in vitro ADME; conditions: at 10 μM
CYP2C9, sequence (P11712 whole entry): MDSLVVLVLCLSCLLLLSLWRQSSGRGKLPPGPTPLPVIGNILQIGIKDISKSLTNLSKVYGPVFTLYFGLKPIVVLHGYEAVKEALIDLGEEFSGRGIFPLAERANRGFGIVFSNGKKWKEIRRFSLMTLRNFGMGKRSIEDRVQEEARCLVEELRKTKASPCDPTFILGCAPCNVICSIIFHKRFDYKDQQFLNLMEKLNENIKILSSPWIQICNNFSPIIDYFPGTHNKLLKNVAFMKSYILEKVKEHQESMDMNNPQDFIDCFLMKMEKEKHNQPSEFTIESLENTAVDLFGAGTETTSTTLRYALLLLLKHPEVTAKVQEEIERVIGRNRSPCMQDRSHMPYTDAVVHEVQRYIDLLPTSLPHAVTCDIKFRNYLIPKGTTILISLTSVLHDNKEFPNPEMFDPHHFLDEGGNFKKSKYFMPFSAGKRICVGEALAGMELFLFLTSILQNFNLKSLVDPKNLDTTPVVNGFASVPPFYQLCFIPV
Protocol: as §1

[17] = target: CYP3A4 (Homo sapiens, UniProt P08684); experiment: P450 cocktail inhibition assay, CYP3A4; type: in vitro ADME; conditions: at 10 μM
CYP3A4, sequence (P08684 whole entry): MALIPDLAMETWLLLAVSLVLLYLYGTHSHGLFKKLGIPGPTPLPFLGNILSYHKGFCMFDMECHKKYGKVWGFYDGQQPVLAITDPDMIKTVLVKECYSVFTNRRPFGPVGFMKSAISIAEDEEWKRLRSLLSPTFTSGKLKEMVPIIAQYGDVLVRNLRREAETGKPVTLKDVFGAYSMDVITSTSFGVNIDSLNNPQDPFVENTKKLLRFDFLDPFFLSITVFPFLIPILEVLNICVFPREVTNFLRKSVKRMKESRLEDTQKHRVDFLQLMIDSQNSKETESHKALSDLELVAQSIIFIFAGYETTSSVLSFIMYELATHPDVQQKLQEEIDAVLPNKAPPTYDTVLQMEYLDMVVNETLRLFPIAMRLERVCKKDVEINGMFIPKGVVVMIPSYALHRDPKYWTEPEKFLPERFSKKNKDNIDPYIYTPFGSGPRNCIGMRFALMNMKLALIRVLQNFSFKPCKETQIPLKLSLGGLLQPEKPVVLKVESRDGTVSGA
Protocol: as §1

[18] = target: p38α (Homo sapiens, UniProt Q16539); experiment: p38 enzyme inhibition assay; conditions: mean of ≥2 experiments; read-out: Biochemical inhibition IC50 p38α
[19] = target: T13, panel of 374 wild-type kinases (Homo sapiens, UniProt O14578); experiment: biochemical; conditions: read-out: % Enzyme Activity (relative to DMSO controls), kinase STK21/CIT
T13 construct: purchased Reaction Biology Corporation

[20] = target: T14, panel of 374 wild-type kinases (Homo sapiens, UniProt Q56UN5); experiment: biochemical; conditions: read-out: % Enzyme Activity (relative to DMSO controls), kinase YSK4/MAP3K19
T14 construct: purchased Reaction Biology Corporation

[21] = read-out: % Enzyme Activity (relative to DMSO controls), CDK6/cyclin D1
[22] = read-out: % Enzyme Activity (relative to DMSO controls), CDK6/cyclin D3

| Compound | MTT cell viability [1] | Mic. stability t1/2 Human [2] | remaining activity at 5 µM [3] | remaining activity at 5 µM [4] | remaining activity at 5 µM [5] | remaining activity at 5 µM [7] | remaining activity at 5 µM [10] | remaining activity at 5 µM [11] | remaining activity at 5 µM [13, 21] | remaining activity at 5 µM [13, 22] | CYP-450 % inh. 2D6 [14] | CYP-450 % inh. 1A2 [15] | CYP-450 % inh. 2C9 [16] | CYP-450 % inh. 3A4 [17] | also measured |
| --- | --- | --- | --- | --- | --- | --- | --- | --- | --- | --- | --- | --- | --- | --- | --- |
| O=C(Nc1cnn(-c2csc(C(=O)NC3COC3)c2)c1)Nc1c(F)cccc1Cl [Compound 25, 4-(4-(3-(2-chloro-6-fluorophenyl)ureido)-1H-pyrazol-1-yl)-N-(oxetan-3-yl)thiophene-2-carboxamide] | 102% | 1.67 h | 70.7% | 94.2% | 82.2% | 85.2% | 89.6% | 97.5% | 105% | 92.6% | 31% | 36% | 48% | 24% | remaining activity at 5 µM ([6]; 5 uM): 108%; remaining activity at 5 µM ([8]; 5 uM): 108%; remaining activity at 5 µM ([9]; 5 uM): 108%; remaining activity at 5 µM ([12]; 5 uM): 90.5% |
| O=C(Nc1cnn(-c2csc(C(=O)NC3COC3)c2)c1)Nc1ccccc1Cl [Compound 17, 4-(4-(3-(2-chlorophenyl)ureido)-1H-pyrazol-1-yl)-N-(oxetan-3-yl)thiophene-2-carboxamide] | 104% | 1.1 h | 101% | 102% | 96.5% | 124% | 87% | 101% | 95.4% | 114% | −15% | 6% | 8% | −34% | IC50 [18]: > 20 µM; remaining activity at 5 µM ([19]; 5 uM): 90.1%; remaining activity at 5 µM ([20]; 5 uM): 105% |
| Cc1sc(C(=O)NC2COC2)cc1-n1cc(NC(=O)Nc2c(F)cccc2Cl)cn1 [Compound 27, 4-(4-(3-(2-chloro-6-fluorophenyl)ureido)-1H-pyrazol-1-yl)-5-methyl-N-(oxetan-3-yl)thiophene-2-carboxamide] | 111% | 1.83 h |  |  |  |  |  |  |  |  | 1% | 22% | 33% | 16% | remaining activity at 10 µM ([19]; 10 uM): 98.8%; remaining activity at 10 µM ([6]; 10 uM): 101%; remaining activity at 10 µM ([8]; 10 uM): 101%; remaining activity at 10 µM ([20]; 10 uM): 95.5%; remaining activity at 10 µM ([9]; 10 uM): 96.7%; remaining activity at 10 µM ([12]; 10 uM): 97% |
